For orientation: IC50 means the concentration that gives 50% inhibition.

One assay addresses IDH1R132C (Homo sapiens (Human), UniProt O75874, R132C). The experiment in a line: Inhibitory activity against IDH1R132C enzyme (NADPH detection, WST-8). The following applies: 10 nM, residual NADPH detected with WST-8, read-out: Test Example 1 IDH1 R132C IC50. In kind it is biochemical. (In general: Tetrazolium assays rely on reduction of a dye to a coloured formazan, in cell work by metabolically active cells.)

Assay [1] concerns HT-1080 cells expressing IDH1R132C. Nature of the assay: 2-HG production inhibitory activity using HT1080 cell. In kind it is cell-based, human. The note with it: Homo sapiens, HT-1080; 2-HG production, HT1080 cells; read-out: Test Example 3 IC50. As to the method: Then, 100 μL of growth medium B was added to each well, further 25 μL of a solution of each compound diluted to a predetermined concentration with growth medium B was added to each well, and the cells were incubated at 37° C. for 2 days under 5% CO2. […] Then, 150 μL of ultrapure water was further added to each well, and the mixture was stirred by pipetting and stored at −20° C.
The preserved solutions were thawed at room temperature.

Assay [2] has as its system HT1080 xenografted mice (IDH1R132C). The experiment in a line: 2-HG production inhibitory activity using HT1080 xenografted mice. In kind it is in vivo, mouse. The note with it: Mus musculus, HT-1080, po, 6 h, 2-HG production, HT1080 xenografted mice; read-out: Test Example 5 Ratio (%). In outline: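 Mice bearing HT1080 tumors received 75 mg/kg compound by oral gavage twice a day, three doses in total, at 10 mL/kg; vehicle-dosed mice were negative controls. Tumors were collected 6 h after the final dose, frozen, homogenized in methanol and centrifuged, and 2-HG was measured in the extracts.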

IDH1R132C, sequence (O75874 whole entry R132C): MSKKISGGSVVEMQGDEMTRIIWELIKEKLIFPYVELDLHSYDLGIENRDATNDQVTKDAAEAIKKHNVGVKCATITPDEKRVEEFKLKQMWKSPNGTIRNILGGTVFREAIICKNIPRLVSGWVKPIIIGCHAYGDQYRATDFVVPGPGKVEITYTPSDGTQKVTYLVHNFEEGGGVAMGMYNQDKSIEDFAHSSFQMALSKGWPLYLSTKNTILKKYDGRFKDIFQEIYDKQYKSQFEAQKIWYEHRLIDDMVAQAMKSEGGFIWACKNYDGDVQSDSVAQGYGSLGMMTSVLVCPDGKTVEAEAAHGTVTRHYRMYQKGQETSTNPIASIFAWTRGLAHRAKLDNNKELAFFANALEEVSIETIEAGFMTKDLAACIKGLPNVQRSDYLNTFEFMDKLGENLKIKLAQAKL

Consider `C=CS(=O)(=O)N1CCN(c2onc(-c3c(Cl)cccc3Cl)c2C(=O)n2ccc3c(/C=C/C(=O)O)cccc32)CC1` [Example 149, (2E)-3-[1-({3-(2,6-Dichlorophenyl)-5-[4-(ethenylsulfonyl)piperazin-1-yl]-1,2-oxazol-4-yl}carbonyl)-1H-indol-4-yl]prop-2-enoic acid], for which the IC50 on IDH1R132C worked out at 0.132 µM; in assay [1] it was 0.278 µM. Moreover, in assay [2], the response vs control in vivo at 75 mg/kg amounted to 96%.
On the same counts, the results for `C=CC(=O)N1CCN(c2onc(-c3c(Cl)cc(Cl)cc3Cl)c2C(=O)n2ccc3c(/C=C/C(=O)O)cccc32)C2(CC2)C1` [Example 150, (2E)-3-(1-{[5-[7-Acryloyl-4,7-diazaspiro[2.5]oct-4-yl]-3-(2,4,6-trichlorophenyl)-1,2-oxazol-4-yl]carbonyl}-1H-indol-4-yl)prop-2-enoic acid] are 0.098 µM, 0.041 µM and 18%.
On the same counts, the results for `C=CC(=O)N1C[C@@H](C)N(c2onc(-c3c(Cl)cc(Cl)cc3Cl)c2C(=O)n2ccc3c(/C=C/C(=O)O)cccc32)[C@@H](C)C1` [Example 151, (2E)-3-(1-{[5-(4-Acryloyl-cis-2,6-dimethylpiperazin-1-yl)-3-(2,4,6-trichlorophenyl)-1,2-oxazol-4-yl]carbonyl}-1H-indol-4-yl)prop-2-enoic acid] are 0.168 µM, 0.041 µM and 60%.
On the same counts, the results for `C=CC(=O)N1C[C@@H](C)N(c2onc(-c3c(Cl)cc(Cl)cc3Cl)c2C(=O)n2ccc3c(/C=C/C(=O)O)cccc32)C[C@H]1C` [Example 152, (2E)-3-[1-({5-[(2R,5R)-4-Acryloyl-2,5-dimethylpiperazin-1-yl]-3-(2,4,6-trichlorophenyl)-1,2-oxazol-4-yl}carbonyl)-1H-indol-4-yl]prop-2-enoic acid] are 0.222 µM, 0.276 µM and 87%.
On to `C=CC(=O)N1CCN(c2onc(-c3c(Cl)cccc3Cl)c2C(=O)n2ccc3c(/C=C/C(=O)O)cccc32)[C@H](C2CC2)C1` [Example 154, (2E)-3-[1-({5-[(2R)-4-Acryloyl-2-cyclopropylpiperazin-1-yl]-3-(2,6-dichlorophenyl)-1,2-oxazol-4-yl}carbonyl)-1H-indol-4-yl]prop-2-enoic acid], for which the figures for the IC50 (on IDH1R132C; in assay [1]) were 0.235 µM and 0.294 µM, respectively. Further, in assay [2], the response vs control in vivo at 75 mg/kg amounted to 45%.
On the same counts, the results for `C=CC(=O)N1CC2(CC2)N(c2onc(-c3c(Cl)cccc3Cl)c2C(=O)n2ccc3c(/C=C/C(=O)O)cccc32)C[C@H]1C` [Example 155, (2E)-3-[1-({5-[(6R)7-Acryloyl-6-methyl-4,7-diazaspiro[2.5]oct-4-yl]-3-(2,6-dichlorophenyl)-1,2-oxazol-4-yl}carbonyl)-1H-indol-4-yl]prop-2-enoic acid] are 0.122 µM, 0.055 µM and 41%.
For the compound `C=CC(=O)N1CC2(CC2)N(c2onc(-c3c(F)cccc3Cl)c2C(=O)n2ccc3c(/C=C/C(=O)O)cccc32)C[C@H]1C` [Example 156, (2E)-3-[1-({5-[(6R)7-Acryloyl-6-methyl-4,7-diazaspiro[2.5]oct-4-yl]-3-(2-chloro-6-fluorophenyl)-1,2-oxazol-4-yl}carbonyl)-1H-indol-4-yl]prop-2-enoic acid], the IC50 (on IDH1R132C; in assay [1]) was 0.167 µM in each case. In addition, in assay [2], the response vs control in vivo at 75 mg/kg stood at 60%.
Consider `C=CC(=O)N1CCN(c2onc(-c3c(F)cccc3Cl)c2C(=O)n2ccc3c(/C=C/C(=O)O)cccc32)C(C)(C)C1` [Example 157, (2E)-3-(1-{[5-(4-Acryloyl-2,2-dimethylpiperazin-1-yl)-3-(2-chloro-6-fluorophenyl)-1,2-oxazol-4-yl]carbonyl}-1H-indol-4-yl)prop-2-enoic acid], for which the results for the IC50 (at IDH1R132C; in assay [1]) were 0.256 µM and 0.265 µM, respectively. Moreover, the response vs control in vivo at 75 mg/kg in assay [2] was 89%.
On the same counts, the results for `C=CC(=O)N1CC2(CC2)N(c2onc(-c3c(Cl)cccc3OC)c2C(=O)n2ccc3c(/C=C/C(=O)O)cccc32)C[C@H]1C` [Example 158, (2E)-3-[1-({5-[(6R)7-Acryloyl-6-methyl-4,7-diazaspiro[2.5]oct-4-yl]-3-(2-chloro-6-methoxyphenyl)-1,2-oxazol-4-yl}carbonyl)-1H-indol-4-yl]prop-2-enoic acid] are 0.179 µM, 0.178 µM and 62%.
On the same counts, the results for `C=CC(=O)N1C[C@@H](C)N(c2onc(-c3c(Cl)cccc3Cl)c2C(=O)n2ccc3c(/C=C/C(=O)O)cccc32)C2(CC2)C1` [Example 159, (2E)-3-[1-({5-[(5R)7-Acryloyl-5-methyl-4,7-diazaspiro[2.5]oct-4-yl]-3-(2,6-dichlorophenyl)-1,2-oxazol-4-yl}carbonyl)-1H-indol-4-yl]prop-2-enoic acid] are 0.084 µM, 0.138 µM and 30%.
On the same counts, the results for `C=CC(=O)N1CC2(CC2)N(c2onc(-c3c(F)cccc3Cl)c2C(=O)n2ccc3c(/C=C/C(=O)O)cccc32)C[C@H]1CC` [Example 160, (2E)-3-[1-({5-[(6R)7-Acryloyl-6-ethyl-4,7-diazaspiro[2.5]oct-4-yl]-3-(2-chloro-6-fluorophenyl)-1,2-oxazol-4-yl}carbonyl)-1H-indol-4-yl]prop-2-enoic acid] are 0.081 µM, 0.106 µM and 47%.
As to `C=CC(=O)N1CC2(CC2)N(c2onc(-c3c(Cl)cccc3OC)c2C(=O)n2ccc3c(/C=C/C(=O)O)cccc32)C[C@H]1CC` [Example 161, (2E)-3-[1-({5-{(6R)7-Acryloyl-6-ethyl-4,7-diazaspiro[2.5]oct-4-yl]-3-(2-chloro-6-methoxyphenyl)-1,2-oxazol-4-yl}carbonyl)-1H-indol-4-yl]prop-2-enoic acid], the IC50 at IDH1R132C came out at 0.098 µM; in assay [1], 0.121 µM. Moreover, the response vs control in vivo at 75 mg/kg in assay [2] stood at 72%.
Turning to `C=CC(=O)N1CC2(CC2)N(c2onc(-c3c(Cl)cccc3Cl)c2C(=O)n2ccc3c(/C=C/C(=O)O)cccc32)C[C@H]1CC` [Example 163, (2E)-3-[1-({5-[(6R)7-Acryloyl-6-ethyl-4,7-diazaspiro[2.5]oct-4-yl]-3-(2,6-dichlorophenyl)-1,2-oxazol-4-yl}carbonyl)-1H-indol-4-yl]prop-2-enoic acid], the IC50 was 0.098 µM on IDH1R132C and 0.045 µM in assay [1]. Also, the response vs control in vivo at 75 mg/kg in assay [2] worked out at 33%.
On the same counts, the results for `C=CC(=O)N1CCC(c2onc(-c3c(Cl)cc(Cl)cc3Cl)c2C(=O)c2cn(C)c3c(/C=C/C(=O)O)cccc23)CC1` [Example 166, (2E)-3-(3-{[5-(1-Acryloylpiperidin-4-yl)-3-(2,4,6-trichlorophenyl)-1,2-oxazol-4-yl]carbonyl}-1-methyl-1H-indol-7-yl)prop-2-enoic acid] are 0.141 µM, 0.299 µM and 81%.
As to `Cn1cc(C(=O)c2c(-c3c(Cl)cc(Cl)cc3Cl)noc2C(C)(C)C)c2ccc3ccc(C(=O)O)cc3c21` [Example 167, 3-{[5-tert-Butyl-3-(2,4,6-trichlorophenyl)-1,2-oxazol-4-yl]carbonyl}-1-methyl-1H-benzo[g]indole-8-carboxylic acid], the IC50 was 0.196 µM at IDH1R132C and 0.195 µM in assay [1]. For the same compound, the response vs control in vivo at 75 mg/kg in assay [2] came out at 87%.

Values taken from patent publication US10040791B2, “Isoxazole derivative as mutant isocitrate dehydrogenase 1 inhibitor” (Daiichi Sankyo Company, Limited, priority 2014, dated 2018).
